Measurements taken from ChEMBL document CHEMBL1201862, “PubChem BioAssay data set” (2004).
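Step 1: Grow cells in 96-well plates. Step 2: Expose to compound for 48 hours at 5 concentrations. Step 3: Interpolate endpoints linearly; if unreached, use highest concentration. The concentration for 50% growth inhibition is given as GI50.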 The source made the active and inactive calls. Cut-off read from the data, not from the text of the source: active = GI50 up to about 1.1 µM and inactive = higher.

Legend:
Assay in all cases: DTP human tumour cell line panel, 48 h
[1] = system: DLD-1
[2] = system: KM-20L2
[3] = system: HOP-18
[4] = system: RXF 631
[5] = system: LXFL 529
[6] = system: DMS-114
[7] = system: SNB-78

Row | Structure (SMILES) | GI50 [1] | GI50 [2] | GI50 [3] | GI50 [4] | GI50 [5] | GI50 [6] | GI50 [7]
1 | CN(C)CCNC(=O)c1ccc(Cl)c2c(Nc3ccc(S(N)(=O)=O)cc3)c3ccccc3nc12 | 1.31 µM (inactive) | 2.68 µM (inactive) | 2.2 µM (inactive) | 0.566 µM (active) | 0.564 µM (active) | 1.76 µM (inactive) | –
2 | CCOC(=O)/C(=C/c1cccc(C#N)c1)N(CC)CC | > 100 µM (inactive) | – | > 100 µM (inactive) | > 100 µM (inactive) | > 100 µM (inactive) | > 100 µM (inactive) | > 100 µM (inactive)
3 | N=C1NC2(O)C(=O)c3ccccc3C2(O)N1 (stereo unspecified) | > 100 µM (inactive) | > 100 µM (inactive) | > 100 µM (inactive) | > 100 µM (inactive) | > 100 µM (inactive) | > 100 µM (inactive) | > 100 µM (inactive)
4 | O=C(c1ccc(Cl)cc1)N(C(=S)N1CCN(c2ccccn2)CC1)c1ccccc1 | > 100 µM (inactive) | > 100 µM (inactive) | > 100 µM (inactive) | – | 55.2 µM (inactive) | 42.5 µM (inactive) | > 100 µM (inactive)
5 | C=CCC(O)c1cc(OC)ccc1OC (stereo unspecified) | – | – | – | > 100 µM (inactive) | > 100 µM (inactive) | > 100 µM (inactive) | –
6 | C=CC/N=C1\NC(=O)C(CC(=O)Nc2ccc(C)cc2)S1 (stereo unspecified) | > 100 µM (inactive) | > 100 µM (inactive) | > 100 µM (inactive) | > 100 µM (inactive) | > 100 µM (inactive) | > 100 µM (inactive) | –
7 | N#C/C(=C1\OC(=N)C(c2ccc(Cl)cc2Cl)C1=O)c1ccc(Cl)cc1Cl (stereo unspecified) | > 100 µM (inactive) | > 100 µM (inactive) | – | > 100 µM (inactive) | > 100 µM (inactive) | > 100 µM (inactive) | > 100 µM (inactive)
8 | COc1cc2c([C@@H](OC(=O)c3ccccc3)c3ccc4c(c3)OCO4)nccc2c(OC)c1OC | 53.3 µM (inactive) | 42.1 µM (inactive) | > 100 µM (inactive) | 20.5 µM (inactive) | 16.7 µM (inactive) | 16.4 µM (inactive) | 85.7 µM (inactive)
9 | CCOc1ccc(/C=C2/C(=O)N=C(N)N=C2N)cc1OCC | – | > 100 µM (inactive) | > 100 µM (inactive) | > 100 µM (inactive) | > 100 µM (inactive) | > 100 µM (inactive) | > 100 µM (inactive)
10 | CC12CCC([C@H](N3CCOCC3)/C1=N\OCCN1CCCC1)C2(C)C (stereo partly specified) | > 100 µM (inactive) | > 100 µM (inactive) | > 100 µM (inactive) | > 100 µM (inactive) | > 100 µM (inactive) | 71.9 µM (inactive) | > 100 µM (inactive)
11 | N#CC(C(=O)/C(=N/N)C(C#N)c1ccccc1)c1ccccc1 (stereo unspecified) | > 100 µM (inactive) | – | > 100 µM (inactive) | > 100 µM (inactive) | > 100 µM (inactive) | > 100 µM (inactive) | > 100 µM (inactive)
12 | c1cncc(C2c3[nH]c4ccccc4c3CCN2CCN2CCCCC2)c1 (stereo unspecified) | > 100 µM (inactive) | > 100 µM (inactive) | > 100 µM (inactive) | > 100 µM (inactive) | > 100 µM (inactive) | > 100 µM (inactive) | > 100 µM (inactive)
13 | NC(=O)N/N=C(/c1nc2ccc([N+](=O)[O-])cc2nc1O)C(O)c1ccco1 (stereo unspecified) | > 100 µM (inactive) | 10.4 µM (inactive) | – | 48.2 µM (inactive) | 36.8 µM (inactive) | 28.8 µM (inactive) | > 100 µM (inactive)
14 | CCOC(=O)C(C(=O)OCC)S(C)(=O)=O | > 100 µM (inactive) | > 100 µM (inactive) | > 100 µM (inactive) | > 100 µM (inactive) | – | > 100 µM (inactive) | –
15 | COC(=O)c1cc2cc(OC)c(OC)cc2cc(C(=O)OC)c1=O | > 100 µM (inactive) | > 100 µM (inactive) | > 100 µM (inactive) | > 100 µM (inactive) | > 100 µM (inactive) | 29.6 µM (inactive) | > 100 µM (inactive)
